Converted amounts (≈) assume the structure as drawn.
Experiments:
[1] = system: Human Hepatocyte; assay: Metabolic stability in human hepatocytes; format: in vitro ADME; settings: human cryopreserved hepatocytes, 1 μM
Description: (§1) The aim of this assay is to determine the metabolic stability of the compound in hepatocytes (cryopreserved) of different species. Low hepatocyte stability may result in the formation of unwanted metabolites, high clearance, and therefore is not desirable.
(§2) A 10 mM stock solution of test compound in DMSO was first diluted in DMSO to 3 mM, and then in modified Krebs-Henseleit buffer (Sigma, K3753) to 5 μM. This compound dilution was added to a suspension of pooled cryopreserved hepatocytes (BioreclamationIVT) at 37° C. under gentle shaking.
(§3) Final reaction conditions were: 1 μM of test compound, 0.03% DMSO, 0.5 million viable hepatocytes/mL, and 75 μL incubation volume.
(§4) Testosterone (1 μM) and 7-hydroxycoumarin (1 μM) were used, respectively as phase I and phase II metabolic reaction controls.
(§5) After 0, 10, 20, 45, 90, 120 and 180 min of incubation, the reaction was terminated with 225 μL of MeCN:MeOH (2:1) containing 100 ng/mL of diclofenac as analytical internal standard. Samples were mixed, centrifuged and the supernatant analyzed by LC-MS/MS.
(§6) The instrument responses (ratios of test compound and internal standard peak areas) were referenced to the zero time point samples (considered as 100%) in order to determine the percentage of compound remaining.
(§7) Plots of percentage compound remaining were used to determine the intrinsic clearance in the hepatocyte incubations using the following equations:
(§8) Scaled Clint [L/h/kg]=Clint [μL/min/10^6 cells]*#(10) cells/g liver*60*(1/10^6) Scaled Clint unbound [L/h/kg]=Clint [L/h/kg]/Fu,inc where: fu,inc equals hepatocyte binding, derived from microsomal binding (fu,mic) by following equation: […]

[2] = system: Mouse Hepatocyte; assay: Metabolic stability in mouse hepatocytes; format: in vitro ADME; settings: mouse cryopreserved hepatocytes, 1 μM
Description: as §1, §2, §3, §4, §5, §6, §7, §8

[3] = target: T1, human IRAK-4 (Homo sapiens, UniProt Q9NWZ3); assay: Phosphorylation IC50 determination for human IRAK-4 (ADP-Glo Kinase Assay); settings: human IRAK-4, substrate RIP140, Km ATP; read-out: IRAK4 ADPglo biochemical assay IC50
T1 construct: purchased Carna Biosciences 09 145
T1 sequence (Q9NWZ3 1-460): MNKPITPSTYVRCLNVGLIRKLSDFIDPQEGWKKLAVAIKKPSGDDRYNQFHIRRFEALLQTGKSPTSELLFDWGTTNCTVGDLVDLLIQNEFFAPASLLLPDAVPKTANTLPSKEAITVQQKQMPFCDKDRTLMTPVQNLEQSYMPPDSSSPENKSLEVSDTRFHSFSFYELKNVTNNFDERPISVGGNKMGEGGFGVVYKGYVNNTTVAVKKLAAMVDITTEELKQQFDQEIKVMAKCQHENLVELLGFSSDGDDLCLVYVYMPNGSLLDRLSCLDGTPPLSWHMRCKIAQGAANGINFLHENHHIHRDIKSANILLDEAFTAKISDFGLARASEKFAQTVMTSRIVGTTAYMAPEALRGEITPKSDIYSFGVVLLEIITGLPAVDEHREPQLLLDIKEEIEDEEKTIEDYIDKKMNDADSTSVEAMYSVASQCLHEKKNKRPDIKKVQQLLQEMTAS
Description: The phosphorylation of the substrate RIP140 (SEQ ID1) by IRAK4 at Km ATP was detected with the ADP-Glo Kinase Assay (Promega, Cat #V9103), a luminescent kinase assay which measures the ADP formed from a kinase reaction. (Zegzouti et al. 2009) In a second step the kinase reaction was terminated and all the remaining ATP was depleted. In a final step the ADP was converted into ATP and this newly synthesized ATP was measured by using a luciferase/luciferin reaction with a luminescent reader. The luminescent signal positively correlated with kinase activity, in particular kinase inhibition giving a decrease of the luminescent signal.
For the semi-automated assay, the positive control (100% inhibition) was prepared by diluting 10 mM staurosporine stock mixture (20 μL) in water (3.8 mL) and DMSO (180 μL), thus resulting in a […] staurosporine solution at 1% DMSO (final concentration after further dilution in the kinase reaction).
For the automated assay, no pre-dilution of the 10 mM staurosporine stock was made. 10 mM staurosporine was spotted directly in the assay plate using acoustic dispensing and complemented with DMSO to result in a similar final concentration as mentioned above.
For the semi-automated assay, the negative control (0% inhibition) was prepared by mixing water (3.8 mL) and DMSO (200 μL) resulting in a final concentration of 1% DMSO after further dilution in the kinase reaction. For the automated assay no pre-dilution of DMSO was done. 100% DMSO was spotted directly on the assay plate.
The assay buffer solution was prepared at a concentration corresponding to 5 fold the final (most diluted) assay concentration by mixing a solution of 125 mM TRIS pH 7.5+0.05% Triton X-100+2.5 mM EGTA (5.27 mL) with 1M mgCl2 (72 μL), 1M DTT (57.6 μL), and 200 mM MnCl2 (360 μL).
For example, for the semi-automated method, the enzyme-substrate mixture was prepared by mixing water (3999 μL), assay buffer solution (1380 μL), 1 mM RIP140 (138 μL—SEQ ID1), and 200 ng/mL IRAK 4 (3.45 μL Carna Biosciences, 09 145).
For semi-automated method, the ATP mixture was prepared at a concentration corresponding to 2.5 fold the final (most diluted) assay concentration of the semi-automated method and 1.5 fold the final (most diluted) assay concentration of the automated method. For example, for the semi-automated method, the ATP mixture was prepared by mixing water (4126 μL), assay buffer solution (1380 μL), and 10 mM ATP (13.80 μL).
The assay are performed either in a semi-automated or fully automated manner. The assay volume and the incubation time of the ADP detection were different accordingly the method used.
The compounds were prepared as a serial dilution of 10 point dose responses with 1/5 dilution steps in 100% DMSO starting from 2 mM highest concentration, diluted 1/20 in water. 1 μL was transferred dry to the assay plates.
On each assay plate 32 wells of each control (positive & negative) were added, followed by 2 μL enzyme-substrate mixture.
The reaction was started by adding 2 μL diluted ATP (final concentration Km ATP) on the assay plates. Plates were centrifuged for a few seconds at 1000 rpm followed by an incubation at r.t. for 120 min.
The reactions were stopped and the unconsumed ATP was depleted by adding 5 μL ADP-glo Reagent (Promega, Cat #V9103) to the reaction. The plates were quickly centrifuged at 1000 rpm and incubated at r.t. for 40 min corresponding to full ATP depletion.
The ADP was converted back to ATP and luciferase and luciferin were introduced to detect ATP by adding 10 μL kinase detection reagent (Promega, Cat #V9103) to the reaction. The plates were centrifuged for a few seconds at 1000 rpm and incubated at r.t. for a further 30 min.
Luminescent read out was performed on an Envision luminescent reader (Perkin Elmer).
For the automated assay, the compounds were prepared as a serial dilution of 10 point dose responses with 1/5 dilution steps in 100% DMSO starting from 2 mM highest concentration. […]

[4] = Thermodynamic solubility; format: physicochemical; settings: Fasted State Simulated Intestine Fluid (FaSSIF), 37 °C, fassif, thermodynamic from solid, Fasted State Simulated Intestine Fluid, read-out: Tsol FaSSIF
Description: In a 8 mL glass vial, 1-2 mg of dry matter of compound were added and stirred with the suitable buffers (Fed State Simulated Intestine Fluid, FeSSIF, or Fasted State Simulated Intestine Fluid, FaSSIF, or Fasted State Simulated Gastric Fluid, FaSSGF, or phosphate buffer pH 7.4) for 24 h at r.t. (for the buffer pH 7.4) or 37° C. (for the GI fluids). The concentration of the mixture was 1 mg/mL.
A volume of 1000 μL were sampled, centrifuged for 10 min at 10 000 rpm and 500 μL of the supernatant were filtered on captiva plate. The samples are diluted in duplicates in DMSO (F100 and F10). Then, a final dilution (F100) in 80/20 H2O/MeCN containing the internal standard (warfarin) was used for LCMS-MS analysis.
A standard curve was made starting from a 40,000 ng/mL stock in DMSO, freshly prepared from dry matter. Then, successive concentrations at 15,000, 11,000, 6,000, 2,500, 1,000, 375, 150 and 75 ng/mL in DMSO were prepared.
Three quality control samples were made: one of 10,000, 1,500 and 200 ng/mL in DMSO, also starting from the DMSO working stock solution at 40,000 ng/mL.
The standard curve and quality controls were diluted a F100 in 80/20 H2O/MeCN (with internal standard) and analyzed on LC/MS-MS (API4000 or API5500).
The samples were analyzed on LC-MS with a flow rate of 0.6 mL/min. The mobile phase A was 0.1% formic acid in water and the mobile phase B was 0.1% formic acid in 90% MeCN and 10% of water. The sample was run under positive or negative ion spray on Pursuit C18—5 μm (2.0×20 mm) column, from Agilent.
The ratio analyte/internal standard peaks areas of the standard curve were plotted in a graph and a linear or polynomial of the second order equation was used to calculate the unknown concentrations of the test compound.
Solubility values were reported in μM and g/mL.

SMILES	Human Hepatocyte stability (Perc. remaining at 90 min) [1] [Perc.]	Mouse Hepatocyte stability (Perc. remaining at 90 min) [2] [Perc.]	IC50 [3] [µM]	solubility thermodynamic at 24 h [4] [mg/mL]
O=C(Nc1cn2cc(C3CCOCC3)nc2c(F)c1OCC(F)F)c1cccn(C2CC2)c1=O [Compound 19, 1-cyclopropyl-N-(7-(2,2-difluoroethoxy)-8-fluoro-2-(tetrahydro-2H-pyran-4-yl)imidazo[1,2-a]pyridin-6-yl)-2-oxo-1,2-dihydropyridine-3-carboxamide]	56.6	76.5	0.01 to 0.05	–
CCOc1c(NC(=O)c2cccn(C3CC3)c2=O)cn2cc(C3CCOCC3)nc2c1F [Compound 12, 1-cyclopropyl-N-(7-ethoxy-8-fluoro-2-(tetrahydro-2H-pyran-4-yl)imidazo[1,2-a]pyridin-6-yl)-2-oxo-1,2-dihydropyridine-3-carboxamide]	85.35	75.1	0.005 to 0.01	–
COc1cc2nc(C3CCS(=O)(=O)CC3)cn2cc1NC(=O)c1cccn(C)c1=O [Compound 24, N-(2-(1,1-dioxidotetrahydro-2H-thiopyran-4-yl)-7-methoxyimidazo[1,2-a]pyridin-6-yl)-1-methyl-2-oxo-1,2-dihydropyridine-3-carboxamide]	–	–	0.01 to 0.05	–
COc1cc2nc(C3COCCO3)cn2cc1NC(=O)c1cccc(C(F)(F)F)n1 (stereo not shown) [Compound 4, N-[2-(1,4-dioxan-2-yl)-7-methoxy-imidazo[1,2-a]pyridin-6-yl]-6-(trifluoromethyl)pyridine-2-carboxamide]	85.9	103.55	0.0001 to 0.005	–
O=C(Nc1cn2cc(C3CCOCC3)nc2cc1C(=O)NCC(F)(F)F)c1cccc(C(F)(F)F)n1 [Compound 21, 2-(tetrahydro-2H-pyran-4-yl)-N-(2,2,2-trifluoroethyl)-6-(6-(trifluoromethyl)picolinamido)imidazo[1,2-a]pyridine-7-carboxamide]	–	–	0.01 to 0.05	–
O=C(Nc1cn2cc(C3CCOCC3)nc2cc1C(=O)NC1COC1)c1cccc(C(F)(F)F)n1 [Compound 22, N-(oxetan-3-yl)-2-(tetrahydro-2H-pyran-4-yl)-6-(6-(trifluoromethyl)picolinamido)imidazo[1,2-a]pyridine-7-carboxamide]	–	–	0.01 to 0.05	–
CC(C)(C)NC(=O)c1cc2nc(C3CCOCC3)cn2cc1NC(=O)c1cccc(C(F)(F)F)n1 [Compound 18, N-(tert-butyl)-2-(tetrahydro-2H-pyran-4-yl)-6-(6-(trifluoromethyl)picolinamido)imidazo[1,2-a]pyridine-7-carboxamide]	–	–	0.01 to 0.05	–
COc1cc2nc(C3COCCO3)cn2cc1NC(=O)c1cccn(C)c1=O (stereo not shown) [Compound 10, N-(2-(1,4-dioxan-2-yl)-7-methoxyimidazo[1,2-a]pyridin-6-yl)-1-methyl-2-oxo-1,2-dihydropyridine-3-carboxamide]	99.95	–	0.01 to 0.05	0.0862 (≈ 224 µM)
CCNC(=O)c1cc2nc(C3CCOCC3)cn2cc1NC(=O)c1cccc(C(F)(F)F)n1 [Compound 16, N-ethyl-2-(tetrahydro-2H-pyran-4-yl)-6-(6-(trifluoromethyl)picolinamido)imidazo[1,2-a]pyridine-7-carboxamide]	–	–	0.01 to 0.05	–
O=C(Nc1cn2cc(C3CCOCC3)nc2cc1C(=O)NCC(F)F)c1cccc(C(F)(F)F)n1 [Compound 17, N-(2,2-difluoroethyl)-2-(tetrahydro-2H-pyran-4-yl)-6-(6-(trifluoromethyl)picolinamido)imidazo[1,2-a]pyridine-7-carboxamide]	–	–	0.005 to 0.01	–
O=C(Nc1cn2cc(C3CCOCC3)nc2cc1C(=O)NC1CC1)c1cccc(C(F)(F)F)n1 [Compound 15, N-cyclopropyl-2-(tetrahydro-2H-pyran-4-yl)-6-(6-(trifluoromethyl)picolinamido)imidazo[1,2-a]pyridine-7-carboxamide]	–	–	0.01 to 0.05	–

— US20220296573A1, “NOVEL COMPOUNDS AND PHARMACEUTICAL COMPOSITIONS THEREOF FOR THE TREATMENT OF INFLAMMATORY DISORDERS” (Galapagos NV, priority 2019, published 2022)
